Data from patent publication US9035059B2, “Nitrogen-containing condensed heterocyclic compound” (TAISHO PHARMACEUTICAL CO., LTD., priority 2011, dated 2015).
Read-outs that look alike come from different tables or passages of the source.

Target: human MGAT2 (Homo sapiens (Human), UniProt Q3SYC2)
Experiment: Test Example 1: Test of MGAT2 inhibitory action (human MGAT2 enzyme fraction from Sf9 cells, free CoA detected by CPM fluorescence)
Type: biochemical
Conditions: human MGAT2 enzyme fraction expressed in Sf9 insect cells, 0.5 μg/ml, 2-monooleoyl glycerol 0.78 μM, oleoyl-CoA 5.3 μM, room temperature 20 min
Protocol: The MGAT2 inhibitory action of the inventive compound was measured by the methods described in Test Examples as shown below. The MGAT enzyme activity was measured based on the amount of an indicator, free Coenzyme A (CoA) which is generated by the reaction shown below, using a sulfhydryl reactive pigment (7-diethylamino-3-(4-maleimidophenyl)-4-methylcoumarin; hereinafter, sometimes abbreviated as CPM).
A test for MGAT2 inhibitory action of test compounds was conducted in accordance with a partially modified version of the method described in John F. Lockwood et al., Am. J. Physiol. Endocrinol. Metab., 2003, 285, E927.
Bac-to-Bac Baculovirus Expression System (Life Technologies Japan) was used to express human MGAT2 in insect cells (Sf9) (Life Technologies Japan). These cells were sonicated and centrifuged at 100,000 g×1 hr to give a precipitate. The precipitate was used as a human MGAT2 enzyme fraction in this assay.
This test was conducted using a black flat-bottom 96-well plate (Corning). A buffer solution with final concentrations of 5 mM magnesium chloride, 100 mM sucrose and 100 mM Tris-HCl (pH=7.5) was prepared and test compounds prepared in various concentrations using dimethyl sulfoxide were added thereto to give a final dimethyl sulfoxide concentration of 1%. The MGAT2 enzyme fraction was added thereto to give a final concentration of 0.5 μg/ml and phosphatidylcholine, 2-monooleoyl glycerol and oleoyl-CoA were added thereto to give final concentrations of 7.5 μM, 0.78 μM and 5.3 μM, respectively, before starting a reaction. The reaction was performed at room temperature for 20 min.
After 20 min, a CPM-containing solution was added thereto to give a final concentration of 5 μM before stopping the MGAT reaction. After 1 hr, a fluorescence detector (Infinite 200 from Tecan Japan) was used to measure the CPM fluorescence value of each well (excitation 380 nm, emission 460 nm).

[1] = read-out: Activity Value [nM] (IC50, concentration at which 50% of produced free CoA was inhibited)

Chain of human MGAT2 (Q3SYC2 whole entry): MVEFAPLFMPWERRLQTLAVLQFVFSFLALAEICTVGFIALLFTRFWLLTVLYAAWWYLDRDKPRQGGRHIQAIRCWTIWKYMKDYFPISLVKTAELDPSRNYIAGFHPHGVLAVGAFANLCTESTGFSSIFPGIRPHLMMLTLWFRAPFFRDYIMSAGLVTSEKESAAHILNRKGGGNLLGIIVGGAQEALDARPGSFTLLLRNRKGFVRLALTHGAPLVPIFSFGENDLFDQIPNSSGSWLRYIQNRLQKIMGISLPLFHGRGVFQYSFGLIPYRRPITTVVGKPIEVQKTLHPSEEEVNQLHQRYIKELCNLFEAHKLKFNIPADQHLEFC

Structure (SMILES)	IC50 [1] [nM]	other results
CCCCCCOc1ccc(NS(=O)(=O)c2ccc3c(c2)CCN(C(C)Cc2ccc(C(C)(C)C)cc2)C3)c(F)c1 (single isomer, unassigned) [Working Example 10-3]		IC50 (listed as 10-3, read-out: Activity Value [nM] (IC50, concentration at which 50% of produced free CoA was inhibited)): 26 nM
CCCCCCOc1ccc(NS(=O)(=O)c2ccc3c(c2)CCN(C(C)Cc2ccc(C(C)(C)C)cc2)C3)c(F)c1 (single isomer, unassigned) [Working Example 10-4]		IC50 (listed as 10-4, read-out: Activity Value [nM] (IC50, concentration at which 50% of produced free CoA was inhibited)): 39 nM
CC(Cc1ccc(C(C)(C)C)cc1)N1CCc2cc(S(=O)(=O)Nc3ccc(CCCC4CCCC4)cc3F)ccc2C1 (single isomer, unassigned) [Working Example 10-5]		IC50 (listed as 10-5, read-out: Activity Value [nM] (IC50, concentration at which 50% of produced free CoA was inhibited)): 25 nM
CC(Cc1ccc(C(C)(C)C)cc1)N1CCc2cc(S(=O)(=O)Nc3ccc(CCCC4CCCC4)cc3F)ccc2C1 (single isomer, unassigned) [Working Example 10-6]		IC50 (listed as 10-6, read-out: Activity Value [nM] (IC50, concentration at which 50% of produced free CoA was inhibited)): 44 nM
CCCCCCCc1ccc(NS(=O)(=O)c2ccc3c(c2)CCN(C(C)Cc2ccc(C(C)(C)C)cc2)C3)c(F)c1 (single isomer, unassigned) [Working Example 10-7]		IC50 (listed as 10-7, read-out: Activity Value [nM] (IC50, concentration at which 50% of produced free CoA was inhibited)): 31 nM
CCCCCCCc1ccc(NS(=O)(=O)c2ccc3c(c2)CCN(C(C)Cc2ccc(C(C)(C)C)cc2)C3)c(F)c1 (single isomer, unassigned) [Working Example 10-8]		IC50 (listed as 10-8, read-out: Activity Value [nM] (IC50, concentration at which 50% of produced free CoA was inhibited)): 62 nM
CC(Cc1ccc(C(C)(C)C)cc1)N1CCc2cc(S(=O)(=O)Nc3ccc(OCCCCCc4ccccc4)cc3F)ccc2C1 (single isomer, unassigned) [Working Example 10-11]		IC50 (listed as 10-11, read-out: Activity Value [nM] (IC50, concentration at which 50% of produced free CoA was inhibited)): 80 nM
CC(Cc1ccc(C(C)(C)C)cc1)N1CCc2cc(S(=O)(=O)Nc3ccc(OCCCCCc4ccccc4)cc3F)ccc2C1 (single isomer, unassigned) [Working Example 10-12]		IC50 (listed as 10-12, read-out: Activity Value [nM] (IC50, concentration at which 50% of produced free CoA was inhibited)): 42 nM
CC(Cc1ccc(C(C)(C)C)cc1)N1CCc2cc(S(=O)(=O)Nc3ccc(OCCCC4CCCCC4)cc3F)ccc2C1 (single isomer, unassigned) [Working Example 10-13]		IC50 (listed as 10-13, read-out: Activity Value [nM] (IC50, concentration at which 50% of produced free CoA was inhibited)): 66 nM
CC(Cc1ccc(C(C)(C)C)cc1)N1CCc2cc(S(=O)(=O)Nc3ccc(OCCCC4CCCCC4)cc3F)ccc2C1 (single isomer, unassigned) [Working Example 10-14]		IC50 (listed as 10-14, read-out: Activity Value [nM] (IC50, concentration at which 50% of produced free CoA was inhibited)): 106 nM
CCCCCCOc1ccc(NS(=O)(=O)c2ccc3c(c2)CCN(C(=O)Nc2ccc(CCCC)cc2)C3)c(F)c1 [14-3]	76	
CCCCCCOc1ccc(NS(=O)(=O)c2ccc3c(c2)CCN(C(=O)Nc2ccc(C(C)(C)C)cc2)C3)c(F)c1 [14-4]	98	
COc1cc(F)ccc1NS(=O)(=O)c1ccc2c(c1)CN(C(=O)Nc1ccc(C(C)(C)C)cc1)C2 [14-9]	168	
COc1ccc(NS(=O)(=O)c2ccc3c(c2)CN(C(=O)Nc2ccc(C(C)(C)C)cc2)C3)c(F)c1 [14-16]	164	
CCCCCOc1ccc(NS(=O)(=O)c2ccc3c(c2)CN(C(=O)Nc2ccc(C(C)(C)C)cc2)C3)c(F)c1 [14-18]	147	
COc1cc(F)cc(F)c1NS(=O)(=O)c1ccc2c(c1)CN(C(=O)Nc1ccc(C(C)(C)C)cc1)C2 [14-21]	193	
CC(C)(C)c1ccc(NC(=O)N2CCc3cc(S(=O)(=O)Nc4ccc(OCCC5CCOCC5)cc4F)ccc3C2)cc1 [14-35]	178	
O=C(NC1CCCCC1)N1CCc2cc(S(=O)(=O)Nc3ccc(CCCC4CCCC4)cc3F)ccc2C1 [14-36]	69	
CCCCCCCOc1ccc(NS(=O)(=O)c2ccc3c(c2)CCN(CCc2ccc(C(C)(C)C)cc2)C3)c(F)c1 [17-1, 2-[2-(4-tert-Butylphenyl)ethyl]-N-[2-fluoro-4-(heptyloxy)phenyl]-1,2,3,4-tetrahydroisoquinoline-6-sulfonamide]	40	
CCCCCCCCOc1ccc(NS(=O)(=O)c2ccc3c(c2)CCN(CCc2ccc(C(C)(C)C)cc2)C3)c(F)c1 [17-2]	45	
CC(C)(C)c1ccc(CCN2CCc3cc(S(=O)(=O)Nc4ccc(OCCCCCc5ccccc5)cc4F)ccc3C2)cc1 [17-5]	24	

Structure (SMILES)	IC50 [1] [nM]	other results
CC(C)(C)c1ccc(CCN2CCc3cc(S(=O)(=O)Nc4ccc(OCCCC5CCCCC5)cc4F)ccc3C2)cc1 [17-6]	39	
CC(C)(C)c1ccc(CCN2CCc3cc(S(=O)(=O)Nc4ccc(OCCC5CCOCC5)cc4F)ccc3C2)cc1 [17-7]	79	
CCCCCCOc1ccc(NS(=O)(=O)c2ccc3c(c2)CN(C(=O)Nc2ccc(C(C)(C)C)cc2)C3)c(F)c1 [18-6]	43	
CCCCCCCCOc1ccc(NS(=O)(=O)c2ccc3c(c2)CN(C(=O)Nc2ccc(C(C)(C)C)cc2)C3)c(F)c1 [18-7]	7	
CC(C)(C)c1ccc(NC(=O)N2Cc3ccc(S(=O)(=O)Nc4ccc(OCC5CCCCC5)cc4F)cc3C2)cc1 [18-10]	230	
CC(C)(C)c1ccc(NC(=O)N2Cc3ccc(S(=O)(=O)Nc4ccc(OCCC5CCCCC5)cc4F)cc3C2)cc1 [18-11]	29	
CC(C)(C)c1ccc(NC(=O)N2Cc3ccc(S(=O)(=O)Nc4ccc(OCCCC5CCCCC5)cc4F)cc3C2)cc1 [18-12]	26	
CC(C)(C)c1ccc(NC(=O)N2Cc3ccc(S(=O)(=O)Nc4ccc(OCCc5ccccc5)cc4F)cc3C2)cc1 [18-14]	127	
CC(C)(C)c1ccc(NC(=O)N2Cc3ccc(S(=O)(=O)Nc4ccc(OCCCc5ccccc5)cc4F)cc3C2)cc1 [18-15]	56	
CC(C)(C)c1ccc(NC(=O)N2Cc3ccc(S(=O)(=O)Nc4ccc(OCCCCCc5ccccc5)cc4F)cc3C2)cc1 [18-16]	10	
CC(C)(C)c1ccc(NC(=O)N2Cc3ccc(S(=O)(=O)Nc4ccc(OCCOc5ccccc5)cc4F)cc3C2)cc1 [18-18]	136	
CC(C)(C)c1ccc(NC(=O)N2Cc3ccc(S(=O)(=O)Nc4ccc(OCCOc5ccc(F)cc5)cc4F)cc3C2)cc1 [18-19]	125	
CC(C)(C)c1ccc(NC(=O)N2Cc3ccc(S(=O)(=O)Nc4ccc(OCCOc5cccc(C(F)(F)F)c5)cc4F)cc3C2)cc1 [18-21]	59	
COc1ccc(OCCOc2ccc(NS(=O)(=O)c3ccc4c(c3)CN(C(=O)Nc3ccc(C(C)(C)C)cc3)C4)c(F)c2)cc1 [18-22]	120	
CC(C)(C)c1ccc(NC(=O)N2Cc3ccc(S(=O)(=O)Nc4ccc(OCCCOc5ccccc5)cc4F)cc3C2)cc1 [18-23]	92	
CC(C)(C)c1ccc(NC(=O)N2Cc3ccc(S(=O)(=O)Nc4ccc(OCCCOc5cccc(Cl)c5)cc4F)cc3C2)cc1 [18-24]	62	
CC(C)(C)c1ccc(NC(=O)N2Cc3ccc(S(=O)(=O)Nc4ccc(OCCCCOc5ccccc5)cc4F)cc3C2)cc1 [18-25]	33	
CC(C)(C)c1ccc(NC(=O)N2Cc3ccc(S(=O)(=O)Nc4ccc(OCCCC(F)(F)F)cc4F)cc3C2)cc1 [18-26]	185	
CC(C)(C)c1ccc(NC(=O)N2Cc3ccc(S(=O)(=O)Nc4ccc(OCCOC5CCCC5)cc4F)cc3C2)cc1 [18-29]	128	
CC(C)(C)c1ccc(NC(=O)N2Cc3ccc(S(=O)(=O)Nc4ccc(OCCC5CC5)cc4F)cc3C2)cc1 [18-31]	266	
CC(C)(C)c1ccc(NC(=O)N2Cc3ccc(S(=O)(=O)Nc4ccc(OCCC5CCCC5)cc4F)cc3C2)cc1 [18-32]	58	
